From paper PMC7537338, “CD47/SIRPα blocking peptide identification and synergistic effect with irradiation for cancer immunotherapy” (Journal for Immunotherapy of Cancer, 2020) come the findings set out here.

The half-life is how long it takes for the measured level to halve. As usually defined, the Cmax is the highest concentration seen after dosing. A word on the IC50: it is the concentration that inhibits the measured activity by half.

Data set [1] is described as follows: Solubility as observed in the binding assay. The format is physicochemical. The following applies: higher titrating concentrations for the MST binding assay could not be used. As for the experimental part:
To assess the affinity of these candidate peptides toward human CD47, the preliminary binding assay was performed. […] In addition, due to the presence of consensus sequences, it can be hypothesized that the peptides pep-5, pep-9 and pep-19 may have higher affinities.
Table S1. Amino acid sequences and binding activity of selected peptides.
Name Peptide sequence Frequency (n/43) KD (μM)
Peptides targeting hCD47 were obtained by bio-panning, the affinity of peptides to hCD47

Data set [2] concerns the target T1, human CD47/SIRPα interaction (Homo sapiens, UniProt Q08722).
T1 construct: Human or mouse CD47-IgV-Domain-hIg fusion proteins (20 nM, Sino Biological, China); purchased Sino Biological (hIg fusion); ACROBiosystems (biotinylated human CD47); host or cells: SIRPα partner: CHO cells stably expressing human SIRPα
In words: Blocking assay, human CD47 protein binding to CHO cells expressing human SIRPα (flow cytometry). The following applies: for Blocking rate relative to pep-20 (%): blockade of peptides to hCD47 relative to parent pep-20, Table S4. As for the experimental part: (§1) Human or mouse CD47-IgV-Domain-hIg fusion proteins (20 nM, Sino Biological, China), or biotinylated human CD47 protein (20 nM, ACROBiosystems, USA) was incubated with titrating concentrations of peptides or anti-human CD47 antibody (B6H12) in phosphate-buffered saline (PBS, pH 7.4) for 1 hour at 4°C. The mixture was incubated with human or mice SIRPα overexpressed Chinese hamster ovary cells for 30 min at 4°C, washed to remove unbound mixtures and phycoerythrin (PE)-conjugated goat anti-human IgG or PE-conjugated streptavidin was incubated (eBioscience, USA). Cells were then analyzed by flow cytometry (BD Biosciences, USA). The IC50 was determined from sigmoidal dose response curves illustrated by GraphPad Prism.
In general terms: A flow cytometer gives signals particle by particle.

The target of data set [3] is T2, human CD47-IgV-Domain protein (Homo sapiens, UniProt Q08722).
T2 construct: Human or mouse CD47-IgV-Domain proteins were labeled with NT-647 dye
Description: MST binding assay to human CD47-IgV-Domain protein. The method, then:
(§2) Human or mouse CD47-IgV-Domain proteins were labeled with NT-647 dye following the microscale thermophoresis (MST) assay protocol, and the labeled protein used for each assay was about 50 to 200 nM. Unlabeled peptides or ligand protein solution was diluted for appropriate concentration serially in buffer (50 mM Tris, 150 mM NaCl, 10 mM MgCl2, 0.05% Tween-20, 0.5% DMSO and pH 7.5). The labeled proteins were then added to peptides or ligand protein solutions by 1∶1 (v/v). The samples were loaded into silica capillaries after incubation at room temperature for 30 min. Binding constants were determined by the MST assay according to manufacturer’s instructions with 20% or 40% light emitting diode (LED) power, 40% MST power at 25°C (Nano Temper, Monolith NT.115, Germany). Data analysis were performed by using a Nanotemper Analysis software.

A short description of another data set: in vivo. The note with it: C57BL/6, mouse, iv, 40 mg/kg.
Data set [4] in a line: Pharmacokinetic assay in vivo. The note with it: C57BL/6, mouse, plasma, iv, 40 mg/kg.
Description: (E, F) The pharmacokinetic analysis
of pep-20 and pep- 20-D12. The plasma concentration-time curve of pep-20 (E) and
Data are represented as means ± SEM.
Pharmacokinetic assays in vivo 140
C57BL/6 mice with weight of 18-20 g were administrated with a single 141
intravenous dose of 40 mg/kg of peptides. Blood samples were collected an d 142
centrifuged at 8000 rpm for 10 min at the indicated intervals. Plasma wa s 143
further mixed with 10% HClO4 at a ratio of 2∶1 (v/v) and centrifuged at 16,000 144
rpm for 10 min. The supernatant was analyzed by RP-HPLC. The 145 pharmacokinetic parameters of peptides were determined by 146 noncompartmental analysis (NCA) using Phoenix WinNonlin software program 147 5.2.1 (Certara, Princeton, USA). The maximum plasma concentration Cmax and 148 elimination half-life (T1/2) were calculated.
Data set [5] deals with T3, mouse CD47/SIRPα interaction (Mus musculus, UniProt Q61735).
T3 construct: Human or mouse CD47-IgV-Domain-hIg fusion proteins (20 nM, Sino Biological, China); purchased Sino Biological; host or cells: SIRPα partner: CHO cells stably expressing mouse SIRPα
T3 sequence (Q61735 19-125 limits assumed): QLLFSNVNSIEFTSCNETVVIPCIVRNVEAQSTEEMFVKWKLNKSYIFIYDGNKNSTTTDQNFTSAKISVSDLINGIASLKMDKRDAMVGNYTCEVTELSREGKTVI
In words: Blocking assay, mouse CD47-IgV-Domain-hIg binding to CHO cells expressing mouse SIRPα (flow cytometry). The note with it: figure 1D, approximately. As for the experimental part: as §1

Data set [6] addresses T4, mouse CD47-IgV-Domain protein (Mus musculus, UniProt Q61735).
T4 construct: Human or mouse CD47-IgV-Domain proteins were labeled with NT-647 dye
T4 sequence (Q61735 19-125 limits assumed): T3 sequence (Q61735 19-125 limits assumed)
In words: MST binding assay to mouse CD47-IgV-Domain protein. The note with it: figure 1B, read-out: KD, pep-20/mCD47. As for the experimental part: as §2

A further data set relates to C57BL/6 naïve mice. Description: Mouse toxicity assays in normal mice. The format is in vivo, C57BL/6 mice. As for the experimental part: toxicity analysis. Normal C57BL/6 mice were injected s.c. with 2 mg/kg of pep-20 or normal saline as the negative control daily from day 1 to 14 ( n = 5). On days 0 and 14, hematologic parameters were analyzed. Red blood cell count (A), hemoglobin level ( B) have no significant difference between pep-20 group and control group. (C) Representative H&E staining images of pep-20 treated. Normal C57BL/6 mice were injected s.c. with 2 mg/kg of pep-20 or normal saline as the negative control daily for 14 days (n = 5). The mouse primary organs of heart, liver, spleen, lung, kidney and thymus […]
Table S2. Organ coefficients analysis of pep-20-treated mice.
Heart Liver Spleen Lung Kidney thymus
Normal C57BL/6 mice were injected s.c. with 2 mg/kg pep-20 or normal saline as the negative control daily for 14 days (n = 5). The mice organ tissues were stripped for organ […]
Table S3. Hepatic damage analysis of pep-20-treated mice. […]
negative control daily for 14 days (n = 5). Mice serum samples were collected and hepatic damage analysis were performed for standard aspartate aminotransferase assay (AST) and alanine aminotransferase assay (ALT).
111 Mouse toxicity assays
112 Normal C57BL/6 mice were injected s.c. with 2 mg/kg peptides or normal 113 saline as the negative control daily from day 1 to 14 (n = 5). On days 0 and 14, 114 mice blood samples were collected via retro-orbital bleed. […]
116 Hematologic and blood biochemical parameters were analyzed by ADVIA 117 2120i Hematology Analyzer (Siemens, Germany). […]

Where [7] appears, read: preliminary binding assay, Table S1, NT-647 labeled hCD47, 50 mM Tris, 150 mM NaCl, 10 mM MgCl2, 0.05% Tween-20, 0.5% DMSO, pH 7.5, 25°C, read-out: KD.
The mark [8] stands for this setting: 2 mg/kg s.c. daily over 14 days, days 0 and 14, n = 5.

Like-named read-outs stand apart in the source and are kept apart here. Where a SMILES comes first, the peptide text is derived from it. Where no end group is shown, it is not given here. [ ]: non-standard residue; d: D form.

T1 sequence (Q08722 19-127 limits assumed): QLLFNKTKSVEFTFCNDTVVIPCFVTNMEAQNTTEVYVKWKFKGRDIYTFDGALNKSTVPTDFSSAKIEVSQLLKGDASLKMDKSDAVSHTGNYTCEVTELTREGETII
T2 sequence (Q08722 19-127 limits assumed): as above

As to LPHYIYETLPVR [pep-5], the Solubility entry in data set [1] was “poor solubility”.
On the same count and under the same terms, as for VSYKEHDMLYSF [pep-19], the entry is “poor solubility”.
In the case of `C[C@H](NC(=O)[C@H](CO)NC(=O)[C@H](Cc1c[nH]c2ccccc12)NC(=O)[C@@H](C)N)C(=O)N[C@H](C(=O)N[C@@H](Cc1c[nH]c2ccccc12)C(=O)N[C@@H](CO)C(=O)N[C@@H](CC(N)=O)C(=O)N[C@@H](Cc1ccc(O)cc1)C(=O)N[C@H](Cc1c[nH]c2ccccc12)C(=O)N[C@H](CCCNC(=N)N)C(=O)N[C@H](Cc1c[nH]cn1)C(=O)O)[C@@H](C)O` [pep-20-D4] (H-[dA]WSATWSNY[dW][dR][dH]-OH), the “Blocking rate relative to pep-20 (%)” value in data set [2] amounted to 96%.
With ASFSSYNRGYMY [pep-15], the Kd in data set [3] (setting [7]) was determined as 14.7 ± 20 µM.
For `C[C@H](NC(=O)[C@H](CO)NC(=O)[C@H](Cc1c[nH]c2ccccc12)NC(=O)[C@@H](C)N)C(=O)N[C@H](C(=O)N[C@@H](Cc1c[nH]c2ccccc12)C(=O)N[C@@H](CO)C(=O)N[C@@H](CC(N)=O)C(=O)N[C@@H](Cc1ccc(O)cc1)C(=O)N[C@@H](Cc1c[nH]c2ccccc12)C(=O)N[C@@H](CCCNC(=N)N)C(=O)N[C@H](Cc1c[nH]cn1)C(=O)O)[C@@H](C)O` [pep-20-D2] (H-[dA]WSATWSNYWR[dH]-OH), in data set [2], the “Blocking rate relative to pep-20 (%)” value is listed as 83%.
In the case of AWSATWSNYWRH [pep-20], the half-life in the data set “in vivo” was 35.4 min. Moreover, the peak level in data set [4] (Cmax) was 33600 ng/mL. In addition, the half-maximal inhibitory concentration (IC50) in data set [2] (20 nM human CD47-IgV-Domain-hIg, CHO cells expressing human SIRPα, flow cytometry, figure 1C) is 24.6 µM; in data set [5], about 12 µM. The “Blocking rate relative to pep-20 (%)” value in data set [2] amounted to 100%. The Kd in data set [3] (human CD47-IgV-Domain protein, figure 1A, read-out: KD, pep-20/hCD47) was determined as 2.91 ± 1.04 µM; in data set [3] (setting [7]), 3.19 ± 2.27 µM; in data set [6], 3.63 ± 1.71 µM. Besides, the “Organ coefficient, Spleen” value in the data set on C57BL/6 naïve mice (2 mg/kg s.c. daily for 14 days, n = 5, NS 0.3±0.04) is 0.31±0.3. The “Organ coefficient, thymus” value in the data set on C57BL/6 naïve mice (2 mg/kg s.c. daily for 14 days, n = 5, NS 0.42±0.06) was determined as 0.36±0.07. In addition, in the data set on C57BL/6 naïve mice (2 mg/kg s.c. daily for 14 days, n = 5, NS 0.55±0.03), the “Organ coefficient, Heart” value stood at 0.58±0.05. In the data set on C57BL/6 naïve mice (2 mg/kg s.c. daily for 14 days, n = 5, NS 0.76±0.19), the “Organ coefficient, Lung” value was 0.77±0.18. In addition, in the data set with C57BL/6 naïve mice (2 mg/kg s.c. daily for 14 days, n = 5, NS 1.15±0.05), the “Organ coefficient, Kidney” value is 1.14±0.06. For the same compound, in the data set on C57BL/6 naïve mice (2 mg/kg s.c. daily for 14 days, n = 5, NS 5.02±0.3), the “Organ coefficient, Liver” value came out at 5.01±0.16. Also, the “Histopathology, H&E staining of major organs” value in the data set on C57BL/6 naïve mice (2 mg/kg s.c. daily for 14 days, heart, liver, spleen, lung, kidney, thymus) is reported as “no abnormalities”. Besides, in the data set on C57BL/6 naïve mice (setting [8]), the Hemoglobin level entry is listed as “no significant differences”. The “Red blood cell count” value in the data set on C57BL/6 naïve mice (setting [8]) is “no significant differences”. This compound yielded an ALT in the data set on C57BL/6 naïve mice (serum, 2 mg/kg s.c. daily for 14 days, n = 5, NS 6.79±0.92) of 7.03±0.86. The compound also displayed an AST in the data set on C57BL/6 naïve mice (serum, 2 mg/kg s.c. daily for 14 days, n = 5, NS 23.40±4.41) of 28.41±5.08.
Consider ASYTDWWRNRLQ [pep-18], for which the Kd in data set [3] (setting [7]) was found to be 161 ± 111 µM.
The same measure, in the same setting: as for VSPLELADNPMY [pep-10], the figure is 49.9 ± 54.8 µM; as for TDLRYKEHYLYL [pep-3], 0.67 µM.
Same read-out and setting: in the case of GNKLTQLAASMM [pep-4] it was 5.32 µM.
With GTYSNYVSHINN [pep-9], the Solubility entry in data set [1] is listed as “poor solubility”.
Consider KLLPSLPSVSRN [pep-14], for which the Kd in data set [3] (setting [7]) is over 500 µM.
Regarding `C[C@H](NC(=O)[C@H](CO)NC(=O)[C@H](Cc1c[nH]c2ccccc12)NC(=O)[C@@H](C)N)C(=O)N[C@H](C(=O)N[C@@H](Cc1c[nH]c2ccccc12)C(=O)N[C@@H](CO)C(=O)N[C@@H](CC(N)=O)C(=O)N[C@@H](Cc1ccc(O)cc1)C(=O)N[C@@H](Cc1c[nH]c2ccccc12)C(=O)N[C@H](CCCNC(=N)N)C(=O)N[C@H](Cc1c[nH]cn1)C(=O)O)[C@@H](C)O` [pep-20-D3] (H-[dA]WSATWSNYW[dR][dH]-OH), the “Blocking rate relative to pep-20 (%)” value in data set [2] is on record as 75%.
As to DRIPKIPGLPVL [pep-6], the Kd in data set [3] (setting [7]) was 9.27 ± 15.1 µM.
The same measure, in the same setting: as for LYAGKLERISRG [pep-16], the figure is 10.7 ± 8.89 µM.
